This is an account of results in US7365082B2, “N-(substituted arylmethyl)-4-(disubstituted methyl)piperidines and piperazines” (Bayer CropScience AG, priority 2002, dated 2008).

This series relates to tobacco budworm (Heliothis virescens [Fabricius]). The series is described as follows: surface-treated diet test against tobacco budworm. The class given is in vivo. To be noted: 0.25 millimoles of candidate insecticide on the surface of the diet, second instar larvae, five-day exposure; for Percent Mortality: compared to the total number of insects infested; for Percent Growth Inhibition: inhibition of insect weight relative to untreated controls. As for the experimental part: Candidate insecticides were evaluated for activity against the tobacco budworm (Heliothis virescens [Fabricius]) in a surface-treated diet test.
In this test one mL of molten (65-70° C.) wheat germ-based artificial diet was pipetted into each well of a four by six (24 well) multi-well plate (ID# 430345-15.5 mm dia.×17.6 mm deep; Corning Costar Corp., One Alewife Center, Cambridge, Mass. 02140). The diet was allowed to cool to ambient temperature before treatment with candidate insecticide.
For a determination of insecticidal activity, solutions of the candidate insecticides were prepared for testing using a Packard 204DT Multiprobe® Robotic System (Packard Instrument Company, 800 Research Parkway, Meriden, Conn. 06450), in which the robot first diluted a standard 50 millimolar DMSO solution of candidate insecticide with a 1:1 water/acetone solution (V/V) in a ratio of 1:7 stock solution to water/acetone. The robot subsequently pipetted 40 microliters of the so-prepared solution onto the surface of the diet in each of three wells in the 24 multi-well plate. The process was repeated with solutions of seven other candidate insecticides. Once treated, the contents of the multi-well plate were allowed to dry, leaving 0.25 millimoles of candidate insecticide on the surface of the diet, or a concentration of 0.25 millimolar. Appropriate untreated controls containing only DMSO on the diet surface were also included in this test.
For evaluations of the insecticidal activity of a candidate insecticide at varying rates of application, the test was established as described above using sub-multiples of the standard 50 millimolar DMSO solution of candidate insecticide. For example, the standard 50 millimolar solution was diluted by the robot with DMSO to give 5, 0.5, 0.05, 0.005, 0.0005 millimolar, or more dilute solutions of the candidate insecticide. In these evaluations there were six replicates of each rate of application placed on the surface of the diet in the 24 multi-well plate, for a total of four rates of application of candidate insecticide in each plate.
In each well of the test plate was placed one second instar tobacco budworm larvea, each weighing approximately five milligrams. After the larvae were placed in each well, the plate was sealed with clear polyfilm adhesive tape. The tape over each well was perforated to ensure an adequate air supply. The plates were then held in a growth chamber at 25° C. and 60% relative humidity for five days (light 14 hours/day).
After the five-day exposure period insecticidal activity for each rate of application of candidate insecticide was assessed as percent inhibition of insect weight relative to the weight of insects from untreated controls, and percent mortality when compared to the total number of insects infested.
The test compounds of formula I are identified by numbers that correspond to those in Table 1.

In the case of `Cn1nnc(-c2ccc(CN3CCC(C(=NNC(=O)c4ccc(Cl)cc4)c4ccc(OC(F)(F)F)cc4)CC3)cc2)n1` [Compound 139], the “Percent Mortality” value came to 100% and the “Percent Growth Inhibition” value was 100%.
Consider `Cn1nnc(-c2ccc(CN3CCC(C(=NNC(=O)c4ccc(Br)cc4)c4ccc(OC(F)(F)F)cc4)CC3)cc2)n1` [Compound 140], for which the “Percent Mortality” value turned out to be 100% and the “Percent Growth Inhibition” value was found to be 100%.
For `Cn1nnc(-c2ccc(CN3CCC(C(=NNC(=O)c4cccc(F)c4)c4ccc(OC(F)(F)F)cc4)CC3)cc2)n1` [Compound 142], the “Percent Mortality” value was determined as 67% and the “Percent Growth Inhibition” value turned out to be 100%.
Taken in the same sequence, the figures for `Cn1nnc(-c2ccc(CN3CCC(C(=NNC(=O)c4ccc(F)cc4)c4ccc(OC(F)(F)F)cc4)CC3)cc2)n1` [Compound 143] were 17% and 87%.
Taken in the same sequence, the figures for `Cn1nnc(-c2ccc(CN3CCC(C(=NNC(=O)c4ccc(I)cc4)c4ccc(OC(F)(F)F)cc4)CC3)cc2)n1` [Compound 144] were 100% and 100%.
Taken in the same sequence, the figures for `Cc1ccc(C(=O)NN=C(c2ccc(OC(F)(F)F)cc2)C2CCN(Cc3ccc(-c4nnn(C)n4)cc3)CC2)cc1` [Compound 145] were 100% and 100%.
With `COc1ccc(C(=O)NN=C(c2ccc(OC(F)(F)F)cc2)C2CCN(Cc3ccc(-c4nnn(C)n4)cc3)CC2)cc1` [Compound 146], the “Percent Mortality” value was determined as 100% and the “Percent Growth Inhibition” value is on record as 100%.
`CCn1nnc(-c2ccc(CN3CCC(C(=NNC(=O)c4ccc(C(F)(F)F)cc4)c4ccc(OC(F)(F)F)cc4)CC3)cc2)n1` [Compound 147]: the “Percent Mortality” value is on record as 100% and the “Percent Growth Inhibition” value stood at 92%.
Taken in the same sequence, the figures for `Cn1nnc(-c2ccc(CN3CCC(C(=NNC(=O)c4ccc(OC(F)(F)F)cc4)c4ccc(OC(F)(F)F)cc4)CC3)cc2)n1` [Compound 148] were 100% and 100%.
Taken in the same sequence, the figures for `CCn1nnc(-c2ccc(CN3CCC(/C(=N\NC(=O)c4ccc(OC(F)(F)F)cc4)c4ccc(OC(F)(F)F)cc4)CC3)cc2)n1` [Compound 149, N-[1-aza-2-(1-{[4-(2-ethyl(1,2,3,4-tetraazol-5-yl))phenyl]methyl}(4-piperidyl))-2-[4-(trifluoromethoxy)phenyl]vinyl][4-(trifluoromethoxy)phenyl]carboxamide] were 100% and 96%.
The matching figures for `Clc1ccc(C(c2ccc(Cl)cc2)N2CCN(Cc3ccc(Oc4ncccn4)cc3)CC2)cc1` [Compound 167]: 100% and 100%.
For the compound `FC(F)(F)c1ccc(C(c2ccc(Cl)cc2)N2CCN(Cc3ccc(Oc4ncccn4)cc3)CC2)cc1` (centres unmarked) [Compound 168], the “Percent Mortality” value was 100% and the “Percent Growth Inhibition” value was 100%.
Turning to `FC(F)(F)c1ccc(C(c2ccc(C(F)(F)F)cc2)N2CCN(Cc3ccc(Oc4ncccn4)cc3)CC2)cc1` [Compound 169, 2-{4-[(4-{bis[4-(trifluoromethyl)phenyl]methyl}piperazinyl)methyl]phenoxy}pyrimidine], the “Percent Growth Inhibition” value was found to be 100%.
`[O-][N+]1(Cc2ccc(Oc3ccccc3F)cc2)CCN(C(c2ccc(OC(F)(F)F)cc2)c2ccc(OC(F)(F)F)cc2)CC1` [Compound 172]: the “Percent Mortality” value amounted to 100% and the “Percent Growth Inhibition” value was determined as 100%.
For `CC(C)OC(=O)Nc1ccc(C[N+]2([O-])CCN(C(c3ccc(C(F)(F)F)cc3)c3ccc(C(F)(F)F)cc3)CC2)cc1` [Compound 174], the “Percent Mortality” value was 100% and the “Percent Growth Inhibition” value is recorded as 100%.
In the case of `CCn1nnc(-c2ccc(C[N+]3([O-])CCN(C(c4ccc(C(F)(F)F)cc4)c4ccc(C(F)(F)F)cc4)CC3)cc2)n1` [Compound 175], the “Percent Mortality” value stood at 100% and the “Percent Growth Inhibition” value is reported as 100%.
As for `[O-][N+]1(Cc2ccc(Oc3ccccn3)cc2)CCN(C(c2ccc(Cl)cc2)c2ccc(C(F)(F)F)cc2)CC1` (centres unmarked) [Compound 176], the “Percent Mortality” value is on record as 100% and the “Percent Growth Inhibition” value was found to be 100%.
In the case of `[O-][N+]1(Cc2ccc(Oc3ccccn3)cc2)CCN(C(c2ccc(C(F)(F)F)cc2)c2ccc(C(F)(F)F)cc2)CC1` [Compound 177], the “Percent Mortality” value is given as 100% and the “Percent Growth Inhibition” value is reported as 100%.
Regarding `[O-][N+]1(Cc2ccc(Oc3ncccn3)cc2)CCN(C(c2ccc(Cl)cc2)c2ccc(Cl)cc2)CC1` [Compound 178], the “Percent Mortality” value came to 0% and the “Percent Growth Inhibition” value is given as 100%.
The matching figures for `[O-][N+]1(Cc2ccc(Oc3ncccn3)cc2)CCN(C(c2ccc(Cl)cc2)c2ccc(C(F)(F)F)cc2)CC1` (centres unmarked) [Compound 179]: 100% and 100%.
With `[O-][N+]1(Cc2ccc(Oc3ncccn3)cc2)CCN(C(c2ccc(C(F)(F)F)cc2)c2ccc(C(F)(F)F)cc2)CC1` [Compound 180, 2-{4-[(4-{bis[4-(trifluoromethyl)phenyl]methyl}1-oxypiperazinyl)methyl]phenoxy}pyrimidine], the “Percent Mortality” value stood at 100% and the “Percent Growth Inhibition” value stood at 100%.
